“And” between values parts separate entries of the source, which are not always exact repeats. Equal values may be shown once. Toxic doses and inconclusive results are not listed.

The subject of this assay is L1210 leukemia ip in BDF1 mice, survival T/C. Put plainly: NCI In Vivo Anticancer Drug Screen. Data for tumor model L1210 Leukemia (intraperitoneal) in B6D2F1 (BDF1) mice. Particulars: endpoint: mean survival time, higher = longer survival. An outline of the steps:
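Value reflects the ratio of survival in compound-treated mice to survival in vehicle-treated controls, with both groups carrying the same transplanted tumor.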

[1] abbreviates: dose: 100.0 mg/kg/injection, schedule: Q01DX001 (ip), vehicle: saline.
Where [2] appears, read: dose: 300.0 mg/kg/injection, schedule: Q04DX003 (ip), vehicle: saline.
Setting [3] is: dose: 100.0 mg/kg/injection, schedule: Q04DX003 (ip), vehicle: Klucel (hydroxypropylcellulose) (HPC).
Setting [4] is: dose: 200.0 mg/kg/injection, schedule: Q04DX003 (ip), vehicle: Klucel (hydroxypropylcellulose) (HPC).
Where [5] appears, read: dose: 400.0 mg/kg/injection, schedule: Q04DX003 (ip), vehicle: Klucel (hydroxypropylcellulose) (HPC).
[6] abbreviates: dose: 25.0 mg/kg/injection, schedule: Q04DX003 (ip), vehicle: saline.
The mark [7] stands for this setting: dose: 100.0 mg/kg/injection, schedule: Q01DX009 (ip), vehicle: Klucel (hydroxypropylcellulose) (HPC).
Setting [8] is: dose: 200.0 mg/kg/injection, schedule: Q01DX009 (ip), vehicle: Klucel (hydroxypropylcellulose) (HPC).
Setting [9] is: dose: 400.0 mg/kg/injection, schedule: Q01DX009 (ip), vehicle: Klucel (hydroxypropylcellulose) (HPC).
[10] abbreviates: dose: 50.0 mg/kg/injection, schedule: Q01DX009 (ip), vehicle: Klucel (hydroxypropylcellulose) (HPC).

Turning to `O=C(CCl)Nc1ccc(S(=O)(=O)c2ccc([N+](=O)[O-])cc2)cc1`, the T/C is, setting by setting: (dose: 30.0 mg/kg/injection, schedule: Q01DX001 (ip), vehicle: saline) 94 % of control; (dose: 75.0 mg/kg/injection, schedule: Q01DX009 (ip), vehicle: saline) 95 % of control; (dose: 75.0 mg/kg/injection, schedule: Q04DX003 (ip), vehicle: saline) 92 % of control; under setting [1], 91 % of control; (dose: 150.0 mg/kg/injection, schedule: Q01DX009 (ip), vehicle: saline) 96 % of control; (dose: 150.0 mg/kg/injection, schedule: Q04DX003 (ip), vehicle: saline) 91 % of control. Further, the T/C is 94 % of control (dose: 300.0 mg/kg/injection, schedule: Q01DX001 (ip), vehicle: saline); 101 % of control (dose: 300.0 mg/kg/injection, schedule: Q01DX009 (ip), vehicle: saline); 94 % of control under setting [2].
With `Cc1nc(SCc2ccccc2)[nH]c(=O)c1CC(C)O` (stereo not given), the T/C is 104 % of control under setting [3], 97 % of control under setting [4] and 104 % of control under setting [5].
With `NCCCc1nc(N)nc(N)c1-c1ccc(Cl)cc1`, the T/C is, setting by setting: under setting [6], 104 % of control; (dose: 50.0 mg/kg/injection, schedule: Q04DX003 (ip), vehicle: saline) 110 % of control; (dose: 100.0 mg/kg/injection, schedule: Q04DX003 (ip), vehicle: saline) 103 % of control.
With `Cc1ccc(Cl)cc1NC(=O)Nc1cccc2c(O)cccc12`, the T/C reads like this: (dose: 100.0 mg/kg/injection, schedule: Q01DX001 (ip), vehicle: saline with Tween-80) 100 % of control; (dose: 100.0 mg/kg/injection, schedule: Q01DX009 (ip), vehicle: saline with Tween-80) 90 % of control and 92 % of control; (dose: 100.0 mg/kg/injection, schedule: Q04DX002 (ip), vehicle: saline with Tween-80) 94 % of control and 87 % of control; (dose: 100.0 mg/kg/injection, schedule: Q04DX003 (ip), vehicle: saline with Tween-80) 88 % of control; (dose: 200.0 mg/kg/injection, schedule: Q01DX001 (ip), vehicle: saline with Tween-80) 89 % of control; (dose: 200.0 mg/kg/injection, schedule: Q01DX009 (ip), vehicle: saline with Tween-80) 103 % of control and 90 % of control. Moreover, the T/C was 97 % of control and 89 % of control (dose: 200.0 mg/kg/injection, schedule: Q04DX002 (ip), vehicle: saline with Tween-80); 98 % of control (dose: 200.0 mg/kg/injection, schedule: Q04DX003 (ip), vehicle: saline with Tween-80); 98 % of control (dose: 400.0 mg/kg/injection, schedule: Q01DX001 (ip), vehicle: saline with Tween-80); 95 % of control (dose: 400.0 mg/kg/injection, schedule: Q01DX009 (ip), vehicle: saline with Tween-80); 94 % of control and 95 % of control (dose: 400.0 mg/kg/injection, schedule: Q04DX002 (ip), vehicle: saline with Tween-80); 101 % of control (dose: 400.0 mg/kg/injection, schedule: Q04DX003 (ip), vehicle: saline with Tween-80).
For the compound `CC(=O)Nc1ccc(/C=N\NC(=O)Nc2ccccc2)cc1`, the T/C was 90 % of control under setting [7], 90 % of control under setting [8] and 91 % of control under setting [9].
`O=C(CC(O)C(Cl)(Cl)Cl)CC(O)C(Cl)(Cl)Cl` (stereo not given): the T/C (dose: 100.0 mg/kg/injection, schedule: Q04DX002 (ip), vehicle: saline) is 96 % of control and the T/C (dose: 200.0 mg/kg/injection, schedule: Q04DX002 (ip), vehicle: saline) is 107 % of control.
For the compound `O=C(Cl)C1CC2c3ccccc3C1([N+](=O)[O-])c1ccccc12` (stereo not given), the T/C runs as follows: under setting [10], 109 % of control; under setting [7], 102 % of control; under setting [3], 104 % of control; under setting [8], 112 % of control and 91 % of control; under setting [4], 104 % of control; under setting [9], 101 % of control. Also, the T/C under setting [5] is 98 % of control.
As to `COc1cc(C)c(C2NC(=O)c3ccccc3N2)cc1C` (stereo not given), the T/C is 95 % of control under setting [10]; 104 % of control and 109 % of control under setting [7]; 97 % of control under setting [3]; 109 % of control (dose: 150.0 mg/kg/injection, schedule: Q01DX009 (ip), vehicle: Klucel (hydroxypropylcellulose) (HPC)); 100 % of control under setting [8]; 97 % of control under setting [4]. Moreover, the T/C is 107 % of control under setting [9] and 103 % of control under setting [5].
Turning to `C1C2CC3C1C1CN3C21` (stereo not given), the T/C was 100 % of control (dose: 6.25 mg/kg/injection, schedule: Q01DX001 (ip), vehicle: saline); 97 % of control (dose: 12.5 mg/kg/injection, schedule: Q01DX001 (ip), vehicle: saline); 111 % of control (dose: 25.0 mg/kg/injection, schedule: Q01DX001 (ip), vehicle: saline).
`CC1OC(O[C@H]2C[C@@H](O)[C@]3(CO)[C@H]4[C@H](O)C[C@]5(C)[C@@H](C6=CC(=O)OC6)CC[C@]5(O)[C@@H]4CC[C@]3(O)C2)C(O)C(O)C1O` (stereo not given in full): the T/C is, setting by setting: (dose: 0.31 mg/kg/injection, schedule: Q01DX009 (ip), vehicle: saline) 101 % of control; (dose: 0.63 mg/kg/injection, schedule: Q01DX009 (ip), vehicle: saline) 101 % of control; (dose: 1.25 mg/kg/injection, schedule: Q01DX009 (ip), vehicle: saline) 98 % of control; (dose: 2.5 mg/kg/injection, schedule: Q01DX009 (ip), vehicle: saline) 102 % of control and 108 % of control; (dose: 12.5 mg/kg/injection, schedule: Q04DX003 (ip), vehicle: saline) 92 % of control; under setting [6], 103 % of control.
Consider `CC[N+](C)(CC)CCN1C(=O)c2ccccc2S1(=O)=O`, for which the T/C is 108 % of control (dose: 44.0 mg/kg/injection, schedule: Q01DX Z (ip), vehicle: saline) and 98 % of control (dose: 66.0 mg/kg/injection, schedule: Q01DX Z (ip), vehicle: saline).
`O=C(O)CCCCCCCCCCCCO`: the T/C under setting [3] is 96 % of control, the T/C under setting [4] is 91 % of control and the T/C under setting [5] is 96 % of control.
For `NC(N)=Nc1ccc(/C=C2\C=Cc3ccccc32)cc1`, the T/C (dose: 200.0 mg/kg/injection, schedule: Q01DX001 (ip), vehicle: carboxymethylcellulose (CMC)) is 101 % of control.
In the case of `CCCCCc1c(C(F)(F)F)[nH]c(=O)[nH]c1=O`, the T/C was 90 % of control under setting [3], 101 % of control under setting [4] and 111 % of control under setting [5].
Turning to `Oc1ccc(Br)cc1-c1nc2cc3ccccc3cc2nc1-c1cc(Br)ccc1O`, the T/C by setting is: under setting [1], 103 % of control; (dose: 200.0 mg/kg/injection, schedule: Q01DX001 (ip), vehicle: saline) 96 % of control; (dose: 400.0 mg/kg/injection, schedule: Q01DX001 (ip), vehicle: saline) 94 % of control.
Consider `Nc1ncn(C2CC(O)C(CO)O2)c(=O)n1` (stereo not given), for which the T/C is 155 % of control (dose: 0.05 mg/kg/injection, schedule: Q01DX005 (ip), vehicle: saline); 154 % of control (dose: 0.12 mg/kg/injection, schedule: Q01DX005 (ip), vehicle: saline); 94 % of control (dose: 0.78 mg/kg/injection, schedule: Q01DX005 (ip), vehicle: saline); 98 % of control (dose: 1.56 mg/kg/injection, schedule: Q01DX005 (ip), vehicle: saline); 114 % of control (dose: 1.56 mg/kg/injection, schedule: Q01DX009 (ip), vehicle: saline); 100 % of control (dose: 3.12 mg/kg/injection, schedule: Q01DX005 (ip), vehicle: saline). In addition, the T/C (dose: 3.12 mg/kg/injection, schedule: Q01DX009 (ip), vehicle: saline) was 100 % of control; the T/C (dose: 6.25 mg/kg/injection, schedule: Q01DX009 (ip), vehicle: saline) is 86 % of control; the T/C under setting [1] is 171 % of control; the T/C (dose: 100.0 mg/kg/injection, schedule: Q01DX005 (ip), vehicle: saline) is 167 % of control and 174 % of control; the T/C (dose: 200.0 mg/kg/injection, schedule: Q01DX005 (ip), vehicle: saline) was 174 % of control and 198 % of control; the T/C under setting [2] was 167 % of control.
